We go through one compound from patent US8119691B2, “Method for treating airway hyper-responsiveness with lipoxin analogs” (National Institutes of Health (NIH), priority 2001, dated 2012).

The test system of data set [1] is OVA sensitized mice. Put plainly: Lung histopathology of OVA sensitized and aerosol challenged mice. Type of data set: in vivo, mouse (BALB/c). Conditions: LXa 10 μg; OVA-allergic mice. The procedure: FIG. 2. Lung histopathology from LXa treated mice. Mice were sensitized and aerosol challenged with OVA in the absence (left column) or presence (right column) of LXa (10 μg). Representative (n=3) lung tissue sections (magnifications: ×40 (a,b), ×100 (d), ×200 (c,e) and ×400 (f)) were obtained from formalin-fixed, paraffin-embedded lung tissue, prepared and stained with hematoxylin and eosin. Arrows denote eosinophils; br, bronchus; v, vessel.
Sensitization and challenge protocols. Five to seven week old male BALB/c (Charles River Laboratories, Wilmington, Mass.) or female hCD11b-hALX FvB transgenic mice were housed in isolation cages under viral antibody-free conditions. […] On day 18, 24 h after the last aerosol challenge, airway responsiveness to intravenous methacholine (33-1000 μg/kg) was measured, bilateral bronchoalveolar lavage (BAL) (2 aliquots of 1 ml PBS plus 0.6 mM EDTA) was performed and tissues (whole blood, lungs, mediastinal lymph nodes and spleen) were harvested for histological analysis. Lung resistance (RL) was measured using a sealed constant mass plethysmograph. […] For mice studied using a whole body plethysmograph to assess airway responsiveness (Buxco), each mouse was placed into a chamber and box pressure/time waveform was analyzed to yield the indicator of airflow obstruction, enhanced pause (Penh). […] Readings were initiated at 3 min and continued for 12 min. […]

Data set [2] relates to murine dorsal air pouches. The settings on record: murine dorsal air pouches (refs. 7, 16); cited from earlier work.
The subject of data set [3] is mouse ear skin. The data set can be described thus: Eosinophil tissue infiltration: EPO activity in mouse ear skin after topical LTB4 plus PGE2. It is filed as in vivo. Conditions: topical LXa 10 μg per ear, LTB4 1 μg + PGE2 1 μg, 13-16 h. As for the experimental part:
FIG. 6. Expression of human ALX in transgenic mice prevents eosinophil trafficking. LTB4 (1 μg) and PGE2 (1 μg) were topically applied (13-16 h) to mouse ear skin and EPO activity in tissue biopsies was determined by bromination of HPA (see Methods). Values represent the mean±SEM for pmoles Br-HPA per μg total protein for Non-tg littermates (n=6) or BLT-tg (n=2) mice in the absence or presence of topical LXa (10 μg per ear) and 2 separate ALX-tg lines (n=4). *P<0.05 by Student's T-test compared to littermate controls.
Eosinophil tissue infiltration. […] EPO activity was monitored by mono-bromination of HPA (Br-HPA). […] Trimethyl silylated HPA, Br-HPA and d4-tyrosine were detected by GC-MS (GC model #6890, MS model #5973, Hewlett Packard, San Fernando, Calif.). […] EPO activity was quantitated by percent conversion of HPA to Br-HPA, taking into account the recovery of the internal standard (>80%) and normalized for the samples' protein content (determined by BioRad protein reagent) (BioRad, Hercules, Calif.).

For data set [4] the following is noted: cited from earlier work.

`COC(=O)CCC[C@H](O)[C@H](O)/C=C/C=C/C=C\C=C\[C@H](O)COc1ccc(F)cc1` [LXa, 15-epi,16-para-fluoro-phenoxy-LXA4-methyl ester]: the “lung tissue leukocyte infiltration (tissue eosinophils and lymphocytes) and vascular injury” value in data set [1] is “significantly reduced leukocyte infiltration”. In addition, the “neutrophil accumulation and exudate formation” value in data set [2] is “blocks neutrophil accumulation and exudate formation”. Also, the “eicosanoid-stimulated skin EPO activity” value in data set [3] (Non-tg mice) and in data set [3] (mice with increased expression of LTB4 receptors (BLT-tg)) was “inhibited eicosanoid-stimulated skin EPO activity” throughout. Moreover, the metabolic inactivation entry in data set [4] is given as “resists metabolic inactivation”.
